system: human nerve extract; assay: Phage display selection on plates coated with human nerve extract (Plated Nerve2), NextGen sequence counts; type: binding; conditions: unique sequence count (relative enrichment); Plated Nerve2 only
Method: Several m13 phage libraries were constructed expressing randomized variants of a parent peptide (QVPWEEPYYVVKKS-SGGL; SEQ ID NO: 576). In particular, the first 14 amino acids of the parent peptide were randomized using degenerate oligonucleotide synthesis to obtain a diverse set of peptides with a mutation rate of about 50% per residue.
To accomplish this, synthesis was carried out by the XXK codon design approach, where X is any base and K is G or T. To bias synthesis towards the parent sequence, synthesis was carried out at each X position with a mixture of about 70%-85% of the parent nucleotide and 15-30% of the remaining 3 nucleotides. The resulting molecules were inserted into fADL-1e (Antibody Design Laboratories), which is a type 3 phage display vector having a cloning site on the N-terminal side of the full-length gene III protein. The fusion proteins are directed to the periplasm by the PelB leader peptide, which is inserted in the vector […].
Collectively, the phage display libraries used in the screens comprised about 600 million peptides, with sequencing analysis confirming a mutation rate of about 50% per residue.
Phage libraries were independently processed, as follows, with five biological samples: two independent samples of excised human nerve tissue, one sample of a human nerve extract, and two independent samples of human muscle tissue, as follows:
Human Nerve Extracts: Phage libraries were incubated for up to 24 hours at 4° C. in 96 well plates that had been coated with a human nerve extract. Plates were then washed with PBS and phage were eluted using 0.2M glycine pH 2.0. Phage supernatants where then neutralized with Tris pH 9.0 prior to plating on TG1 bacteria and LB agar plates. Colonies were counted to determine titer followed by DNA preparation of pools of phage and NextGen sequencing. After rounds of selection, phage were pooled and amplified for iterative selection. Phage that eluted by 0.2M glycine pH 2.0 (the nerve binders) at each round were sequenced. NextGen sequencing of pools after 2, 3 and 4 rounds of selection were used to isolate candidate sequences that were further analyzed using bioinformatics.
NextGen sequencing of pools after 2, 3 and 4 rounds of selection were used to isolate candidate sequences from each of the five samples. These five data sets were then analyzed as described in the next section.
Peptide and vector sequences were translated starting at the first start codon in the nucleotide sequence. […] Trimmed peptides with identical sequences were combined and quantified according to their frequency (count).
Following processing, an R script was written to merge the unique peptide sequences (with counts 6 or greater) from the 5 different data sets to analyze the overlap between nerve and muscle binding activity.
For the single Nerve2, Nerve3, and Plated Nerve2 (pn2) subsets, the number of counts for each group was set at a threshold giving rise to at least 100 peptides. […] As highlighted in yellow in FIG. 1B, the representative group also included 6 unique peptides overlapping between nerve2 and nerve3, 200 unique peptides overlapping between nerve2 and plated nerve2 (at least 60 counts), 4 unique peptides overlapping between nerve3 and plated nerve2. Finally, as highlighted in green in FIG. 1B, the representative group also included […] common to the nerve2, nerve3, and plated nerve2 sets.

Substance | Count
450 (QFAWSQSYAYSSTT) [compound 450] | 107
451 (QGQWDKPYDAVQNS) [compound 451] | 88
452 (QIPGDAQYRLVKRS) [compound 452] | 80
453 (QIPWTQPQYDVTPP) [compound 453] | 79
454 (HVELESSYYFVNNS) [compound 454] | 78
455 (QFPLAEPYYHLTES) [compound 455] | 77
456 (HFDWEEPYYDASKA) [compound 456] | 73
457 (SYEWEDPYYDLKYS) [compound 457] | 73
458 (NVTGAEYYYRMNNY) [compound 458] | 67
459 (HVSCEVPCYGALAS) [compound 459] | 66
460 (HDASEGAYYVERNS) [compound 460] | 65
461 (QFGWEEPYYVLHTV) [compound 461] | 65
462 (HLSREGTYYAVKQP) [compound 462] | 64
463 (QLPLYDPYYTVRTS) [compound 463] | 63
464 (ELPYEEPGTFVEKA) [compound 464] | 62
465 (QFPWEEPYYVFTNS) [compound 465] | 62
466 (QIPGGERSYVLENS) [compound 466] | 62
467 (QITSDKPYYVVKNS) [compound 467] | 60
468 (YDPSGEPYYRVNNH) [compound 468] | 59
469 (QVPRPASSYIGKTS) [compound 469] | 58
470 (QIPLEGPTYVTNPS) [compound 470] | 57
471 (AIPSGAPYYKVNKY) [compound 471] | 56
472 (EFRSEQPYYFVNKY) [compound 472] | 55
473 (QIRWDETYYDIQKT) [compound 473] | 55
474 (QLALEQQSYDAKMS) [compound 474] | 55

Substance | Count
475 (ALPWEHPWCVSKNC) [compound 475] | 54
476 (HVPVLEPYDLVKKS) [compound 476] | 54
477 (QIRSTEPYYVFKKT) [compound 477] | 54
478 (QSPGTNPQNVLIKS) [compound 478] | 54
479 (QITSVDPSSLAYRS) [compound 479] | 53
480 (QMPSGAPYDATLNS) [compound 480] | 53
481 (QNPWDEPSYVVKNV) [compound 481] | 53
482 (QSPFDETAYGLTHS) [compound 482] | 53
483 (QVLFAKSYYSVKDS) [compound 483] | 53
484 (RFPADEEHYVGKLS) [compound 484] | 53
485 (YVPYEEQKYVVTKS) [compound 485] | 53
486 (HSQGQTTEYVGKQS) [compound 486] | 52
487 (DFQSEETRNLAKMP) [compound 487] | 51
488 (DVPWPAPYYAVSKY) [compound 488] | 51
489 (QFPGEESHYVVRNS) [compound 489] | 51
490 (QFQWETPSHVINDS) [compound 490] | 51
491 (QTPRQTLYYSVKAY) [compound 491] | 51
492 (HVAYQEPFVYQKTS) [compound 492] | 50
493 (QISRGDTYYVMNKS) [compound 493] | 50
494 (HIPGEEPSDGVRSY) [compound 494] | 49
495 (HLSVAEPYYAVRNS) [compound 495] | 49
496 (QLQWQKSNWVGKIT) [compound 496] | 49
497 (EIPWEGTYRLVKHS) [compound 497] | 48
498 (HVPQKEPYYVVKTF) [compound 498] | 48
499 (QFPLFTTFYNVEES) [compound 499] | 47

Substance | Count
500 (QFPWETSYYIVKNS) [compound 500] | 47
501 (QLAGGDPYVLPKLS) [compound 501] | 47
502 (DVASGEQSYIVVKY) [compound 502] | 46
503 (HVWLEDTISAEKKS) [compound 503] | 46
504 (QVQWDGASSIVQKT) [compound 504] | 46
505 (HFRGPEPYKFVENP) [compound 505] | 45
506 (HVPWEGPEYIVTQS) [compound 506] | 45
507 (QFPRHDPNEVVHKS) [compound 507] | 45
508 (QIPSEEPNYILKSS) [compound 508] | 45
509 (QRPGDEPSYFVKNS) [compound 509] | 45
510 (ELTMEQPSYVGNVS) [compound 510] | 44
511 (QLPWHEAFFGVNNG) [compound 511] | 44
512 (QVLEKEPSSNVHKS) [compound 512] | 44
513 (HVPSYAPNYEIKES) [compound 513] | 43
514 (QHLGEEPSYSGEYA) [compound 514] | 43
515 (SISSKDPYALVKYS) [compound 515] | 43
516 (QFPWDEPNYVVKNF) [compound 516] | 42
517 (QLPFNEPYYSQQVS) [compound 517] | 42
518 (HLSMEAPYYGVKEY) [compound 518] | 41
519 (HVLGEQPYSVVKTS) [compound 519] | 41
520 (HVSWEEPRYIVKDS) [compound 520] | 41
521 (QLPWEGPYYIVKKS) [compound 521] | 41
522 (QTPAEKPYYVVKKY) [compound 522] | 41

system: excised human nerve tissue; assay: Phage display selection on excised human nerve tissue (Nerve2, Nerve3), NextGen sequence counts; type: binding; conditions: unique sequence count (relative enrichment); Nerve3 only
Method in brief: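 Randomized parent-peptide m13 phage libraries (about 50% mutation per residue) selected on washed excised human nerve tissue over multiple rounds, washing nerve pellet with PBS. NextGen sequencing of pools after rounds 2, 3 and 4; translated peptides counted by frequency, with counts 6 or greater retained.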

Substance | Count
430 (QLPWGKPYNVVVYS) [compound 430] | 101
431 (QTPWQVPGYNMLNS) [compound 431] | 99
432 (AYLSEQLNYVMKNS) [compound 432] | 98
433 (QASSEAPSYPVVKS) [compound 433] | 95
434 (LDQWHTPNYVVRKS) [compound 434] | 92
435 (QLLWDPPSYFVNNS) [compound 435] | 92
436 (DVPWEQPYFVVRNS) [compound 436] | 90
437 (QVPYGQSFVVGTSS) [compound 437] | 90
438 (QLRWEDQYAHVEKS) [compound 438] | 89
439 (HVAWKAPYHFTKNS) [compound 439] | 87
440 (DGLYVRSFYVLQHS) [compound 440] | 86
441 (QFALKGLNGDFQKS) [compound 441] | 83
442 (QFPSAETYRIVKKF) [compound 442] | 83
443 (QLTWELGYHAFVKP) [compound 443] | 83
444 (QLLRNLSYDGAKYS) [compound 444] | 82
445 (QLRVKLQYDVIANN) [compound 445] | 81
446 (QVPAREPNHIVKKS) [compound 446] | 80
447 (SAREQGTFYFVNNS) [compound 447] | 80
448 (LFPKYAPHESVKMS) [compound 448] | 78
449 (QVPGNELYFVLKQY) [compound 449] | 77

— patent publication US20240207422A1, “NERVE TARGETING PEPTIDE CONJUGATES AND METHODS OF USE” (Alume Biosciences, Inc., priority 2022, published 2024)
